Literature values, collected in US5718912A, “Muscarine agonists” (Merck & Co., Inc., priority 1996, dated 1998).
“Also recorded” adds a separate entry of the source.

System: intraocular pressure

CC[C@@H]1C(=O)OC[C@@H]1Cc1cncn1C [pilocarpine]
side effects (pilocarpine therapy): miosis (decrease of pupil size); also recorded: systemic CNS effects | effect on intraocular pressure (topical administration): lowers intraocular pressure by increasing outflow
